# From ChEMBL document CHEMBL1201862, “PubChem BioAssay data set” (2004)
# The source made the active and inactive calls.
# Assays:
# BJ [1] = assay: BJ-TERT fibroblast viability loss – cell-based, RAS-independent, luminescence, dose response (AID 1933); format: functional; conditions: Homo sapiens
# [2] = target: T1, Heat shock factor protein 1 (Mus musculus, UniProt P38532); assay: decrease of HSF1-responsive luciferase luminescence – cell-based, NIH3T3, dose retest, confirmation (AID 2382); format: functional;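 also: NIH3T3 fibroblasts with HSF1-driven luciferase reporter stressed by proteasome inhibitor MG132; luminescence from HSF1-driven luciferase expression after 8 hours of MG132 stress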
# T1 sequence (P38532 whole entry): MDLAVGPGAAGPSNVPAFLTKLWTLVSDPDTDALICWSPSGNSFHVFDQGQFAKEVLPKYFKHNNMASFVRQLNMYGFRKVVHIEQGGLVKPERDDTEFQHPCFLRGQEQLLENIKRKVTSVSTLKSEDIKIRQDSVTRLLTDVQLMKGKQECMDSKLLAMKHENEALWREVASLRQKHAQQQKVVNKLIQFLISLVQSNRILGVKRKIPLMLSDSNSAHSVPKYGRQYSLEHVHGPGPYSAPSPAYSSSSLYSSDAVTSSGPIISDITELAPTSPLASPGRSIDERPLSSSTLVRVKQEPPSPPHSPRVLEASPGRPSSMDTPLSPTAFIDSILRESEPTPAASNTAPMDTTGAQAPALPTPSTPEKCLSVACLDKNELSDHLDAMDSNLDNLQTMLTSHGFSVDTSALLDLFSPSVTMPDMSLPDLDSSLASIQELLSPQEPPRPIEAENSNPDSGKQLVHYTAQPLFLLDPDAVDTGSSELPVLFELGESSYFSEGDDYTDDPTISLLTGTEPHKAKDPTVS
# BJ [3] = assay: cells; format: functional, cell-based; conditions: Homo sapiens
# [4] = target: T2, Sphingosine 1-phosphate receptor 4 (Homo sapiens, UniProt O95977); assay: Fluorescence dose response cell-based high throughput screening assay for antagonists of the Sphingosine 1-Phosphate Receptor 4 (S1P4). [Related pubchem assays: 1524 (Confirmation in triplicates.), 1510 (Primary screen.)]; format: functional
# T2 sequence (O95977 whole entry): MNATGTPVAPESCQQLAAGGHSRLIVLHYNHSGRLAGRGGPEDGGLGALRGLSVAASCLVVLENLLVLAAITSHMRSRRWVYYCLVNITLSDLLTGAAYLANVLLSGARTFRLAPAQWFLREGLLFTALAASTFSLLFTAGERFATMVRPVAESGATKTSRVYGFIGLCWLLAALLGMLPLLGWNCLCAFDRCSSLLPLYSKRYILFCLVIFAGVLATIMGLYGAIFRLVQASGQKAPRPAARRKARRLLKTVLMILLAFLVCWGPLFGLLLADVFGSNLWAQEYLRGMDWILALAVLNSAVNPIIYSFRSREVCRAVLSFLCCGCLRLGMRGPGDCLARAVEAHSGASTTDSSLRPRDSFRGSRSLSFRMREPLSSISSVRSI
# BJ [5] = assay: BJ-TERT-LT-ST fibroblast viability loss – cell-based, RAS-independent, luminescence, dose response (AID 1935); format: functional; conditions: Homo sapiens;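 also: BJ fibroblasts immortalized with TERT plus LT and ST oncogenes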
# [6] = DRD fibroblast viability loss – cell-based, non-viral oncogenic, luminescence, dose response (AID 1934); format: functional; conditions: Homo sapiens
# [7] = target: Sphingosine 1-phosphate receptor 1 (Homo sapiens, UniProt P21453); format: functional;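 also: Tango beta-arrestin reporter U2OS cells stimulated with S1P near its EC80; inhibitor potency meaning antagonism of receptor activation by the natural agonist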
# Sequence of Sphingosine 1-phosphate receptor 1 (P21453 whole entry): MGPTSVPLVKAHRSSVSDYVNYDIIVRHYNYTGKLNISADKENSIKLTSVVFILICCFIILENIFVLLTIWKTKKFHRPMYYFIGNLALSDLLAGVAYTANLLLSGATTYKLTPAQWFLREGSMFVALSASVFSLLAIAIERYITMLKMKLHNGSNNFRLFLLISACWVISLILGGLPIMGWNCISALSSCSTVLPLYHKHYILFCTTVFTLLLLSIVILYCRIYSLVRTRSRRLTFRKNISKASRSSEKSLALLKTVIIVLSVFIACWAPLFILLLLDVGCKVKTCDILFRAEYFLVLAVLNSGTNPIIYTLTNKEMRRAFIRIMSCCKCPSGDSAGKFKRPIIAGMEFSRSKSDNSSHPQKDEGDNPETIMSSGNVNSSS
# Integrin alpha-4 = Integrin alpha-4 (Homo sapiens, UniProt P13612); assay: allosteric modulators of alpha4 integrin VLA-4 – cell-based, LIBS antibody binding, flow cytometry, SAR follow-up (AID 488791); format: functional
# Sequence of Integrin alpha-4 (P13612 whole entry, the tested form may be a part): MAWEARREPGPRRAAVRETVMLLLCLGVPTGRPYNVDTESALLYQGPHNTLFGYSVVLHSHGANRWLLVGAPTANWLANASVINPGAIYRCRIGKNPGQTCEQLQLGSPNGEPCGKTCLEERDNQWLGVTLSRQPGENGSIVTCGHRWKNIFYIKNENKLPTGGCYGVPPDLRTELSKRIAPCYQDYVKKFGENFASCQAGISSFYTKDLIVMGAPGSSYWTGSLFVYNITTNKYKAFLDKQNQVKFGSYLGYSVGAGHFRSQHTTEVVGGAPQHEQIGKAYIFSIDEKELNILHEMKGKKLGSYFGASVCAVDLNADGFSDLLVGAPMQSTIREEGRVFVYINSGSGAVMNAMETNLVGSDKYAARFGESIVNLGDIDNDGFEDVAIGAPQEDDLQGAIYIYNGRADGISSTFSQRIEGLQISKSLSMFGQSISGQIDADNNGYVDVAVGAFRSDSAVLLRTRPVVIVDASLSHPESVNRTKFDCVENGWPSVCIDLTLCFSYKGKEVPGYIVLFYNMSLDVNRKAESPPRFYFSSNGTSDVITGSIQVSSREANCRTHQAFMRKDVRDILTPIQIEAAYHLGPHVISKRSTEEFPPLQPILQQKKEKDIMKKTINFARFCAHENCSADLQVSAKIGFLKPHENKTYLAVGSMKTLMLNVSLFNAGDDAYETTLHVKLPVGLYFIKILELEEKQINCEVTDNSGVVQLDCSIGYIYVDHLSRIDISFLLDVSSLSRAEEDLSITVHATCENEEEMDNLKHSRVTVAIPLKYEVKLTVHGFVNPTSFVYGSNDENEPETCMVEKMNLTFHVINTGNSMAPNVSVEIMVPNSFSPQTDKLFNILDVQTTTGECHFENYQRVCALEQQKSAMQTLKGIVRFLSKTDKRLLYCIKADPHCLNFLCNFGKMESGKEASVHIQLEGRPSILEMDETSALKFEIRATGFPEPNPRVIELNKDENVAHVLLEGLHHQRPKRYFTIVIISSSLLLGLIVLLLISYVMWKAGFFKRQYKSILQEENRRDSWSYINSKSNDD
# CHO = CHO cell viability loss, potency – luminescence, cytotoxicity control for TLR9-MyD88 binding inhibitor project, dose response (AID 588339); format: functional, cell-based, hamster; conditions: Cricetulus griseus;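 also: CHO cells stably coexpressing TLR9 and MyD88 fusions from primary screen; compound exposure lasted 48 hours before viability readout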
# Beta Lactamase = Beta Lactamase (Pseudomonas aeruginosa, UniProt Q932Y6); assay: BLA reporter interference, concentration series – BLA reporter cells, FRET fluorescence, artefact control for TLR9-MyD88 binding inhibitor project, dose response (AID 588341); format: cell-based;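 also: cell based assay in CHO-K1 cells stably expressing beta-lactamase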
# Sequence of Beta Lactamase (Q932Y6 whole entry): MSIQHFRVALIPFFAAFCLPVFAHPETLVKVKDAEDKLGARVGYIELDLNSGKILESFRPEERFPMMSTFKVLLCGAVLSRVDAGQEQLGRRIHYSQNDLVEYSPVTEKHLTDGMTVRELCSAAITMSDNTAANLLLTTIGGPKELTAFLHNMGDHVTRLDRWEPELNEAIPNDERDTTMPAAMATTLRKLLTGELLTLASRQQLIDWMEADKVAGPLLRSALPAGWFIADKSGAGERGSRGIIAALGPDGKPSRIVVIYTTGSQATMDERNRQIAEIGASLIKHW
# [8] = microbe, parasite or virus in culture; format: functional; conditions: Mycobacterium tuberculosis
# [9] = Intein inhibitors as potential Tuberculosis drugs, a cytotoxicity screen. [Related pubchem assays (depositor defined):AID2221, AID2223, AID434968, AID435010, AID449749, AID449750, AID489010]; format: functional
# [10] = target: T3, Replicative DNA helicase DnaB (Mycobacterium tuberculosis, UniProt P9WMR3); assay: DnaB intein splicing inhibitors, dose response, biochemical, cell-free fluorescence (AID 449749); format: functional
# T3 sequence (P9WMR3 whole entry): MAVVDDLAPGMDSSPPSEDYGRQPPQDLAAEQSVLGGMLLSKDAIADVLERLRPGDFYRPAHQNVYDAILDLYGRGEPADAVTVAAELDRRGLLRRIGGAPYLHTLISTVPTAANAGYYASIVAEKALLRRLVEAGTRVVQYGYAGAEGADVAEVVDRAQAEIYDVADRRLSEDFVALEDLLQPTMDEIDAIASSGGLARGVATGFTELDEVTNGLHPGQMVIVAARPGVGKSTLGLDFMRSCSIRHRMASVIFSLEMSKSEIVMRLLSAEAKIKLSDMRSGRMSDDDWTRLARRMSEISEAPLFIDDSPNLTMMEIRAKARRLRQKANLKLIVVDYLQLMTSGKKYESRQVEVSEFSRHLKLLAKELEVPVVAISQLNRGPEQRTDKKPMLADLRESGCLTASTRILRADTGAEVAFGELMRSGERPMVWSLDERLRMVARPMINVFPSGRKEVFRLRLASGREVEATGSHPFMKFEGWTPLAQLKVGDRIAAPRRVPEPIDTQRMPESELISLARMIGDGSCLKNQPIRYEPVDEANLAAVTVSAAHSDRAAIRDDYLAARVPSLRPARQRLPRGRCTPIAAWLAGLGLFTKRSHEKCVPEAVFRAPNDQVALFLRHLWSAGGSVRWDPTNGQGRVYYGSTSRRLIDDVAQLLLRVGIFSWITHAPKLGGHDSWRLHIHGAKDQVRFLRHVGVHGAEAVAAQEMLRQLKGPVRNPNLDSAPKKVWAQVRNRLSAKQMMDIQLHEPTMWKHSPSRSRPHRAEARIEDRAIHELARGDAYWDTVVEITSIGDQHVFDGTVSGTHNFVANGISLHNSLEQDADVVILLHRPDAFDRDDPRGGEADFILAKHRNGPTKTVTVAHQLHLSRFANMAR
# BJ [11] = assay: growth inhibition of engineered Ras-driven BJ cells – cell-based, alamar blue fluorescence, cherrypicked samples, dose response (AID 2631); format: functional; conditions: Homo sapiens;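 also: confirmatory dose-response assay in RAS-dependent BJ fibroblasts engineered with TERT, LT and ST, with cytotoxicity read by fluorescence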
# Protein RecA = target: T4, Protein RecA (Mycobacterium tuberculosis, UniProt P9WHJ3); assay: Fluorescence Cell-Free Homogeneous Dose Retest to Identify Inhibitors of RecA-Intein Splicing Activity. [Related pubchem assays (depositor defined):AID2097, AID2223, AID489010, AID492950]; format: functional
# T4 sequence (P9WHJ3 whole entry): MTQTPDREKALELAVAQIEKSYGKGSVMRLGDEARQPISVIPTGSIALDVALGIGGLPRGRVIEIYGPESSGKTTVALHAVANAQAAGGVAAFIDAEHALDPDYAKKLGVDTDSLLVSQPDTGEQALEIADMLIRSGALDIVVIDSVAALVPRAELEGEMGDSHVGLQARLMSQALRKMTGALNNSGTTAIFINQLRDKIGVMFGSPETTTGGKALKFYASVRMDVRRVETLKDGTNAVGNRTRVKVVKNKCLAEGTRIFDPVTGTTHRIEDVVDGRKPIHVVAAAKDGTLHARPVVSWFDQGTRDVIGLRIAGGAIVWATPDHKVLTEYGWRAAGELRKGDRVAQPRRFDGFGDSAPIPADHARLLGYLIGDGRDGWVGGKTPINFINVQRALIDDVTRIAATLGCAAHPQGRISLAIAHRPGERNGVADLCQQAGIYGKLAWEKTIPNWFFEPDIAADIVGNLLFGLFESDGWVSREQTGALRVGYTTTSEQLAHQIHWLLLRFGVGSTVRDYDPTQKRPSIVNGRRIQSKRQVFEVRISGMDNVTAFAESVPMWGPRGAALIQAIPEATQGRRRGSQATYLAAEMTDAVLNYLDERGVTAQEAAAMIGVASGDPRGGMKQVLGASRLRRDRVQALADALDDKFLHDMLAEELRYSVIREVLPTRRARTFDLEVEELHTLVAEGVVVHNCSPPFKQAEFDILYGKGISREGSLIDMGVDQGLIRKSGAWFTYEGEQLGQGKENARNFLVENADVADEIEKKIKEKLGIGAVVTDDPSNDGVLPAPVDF
# Coagulation factor XII = target: T5, Coagulation factor XII (Homo sapiens, UniProt P00748); assay: activated coagulation factor XII inhibitor potency, concentration-effect curve, cell-free (AID 716); format: functional
# T5 sequence (P00748 whole entry): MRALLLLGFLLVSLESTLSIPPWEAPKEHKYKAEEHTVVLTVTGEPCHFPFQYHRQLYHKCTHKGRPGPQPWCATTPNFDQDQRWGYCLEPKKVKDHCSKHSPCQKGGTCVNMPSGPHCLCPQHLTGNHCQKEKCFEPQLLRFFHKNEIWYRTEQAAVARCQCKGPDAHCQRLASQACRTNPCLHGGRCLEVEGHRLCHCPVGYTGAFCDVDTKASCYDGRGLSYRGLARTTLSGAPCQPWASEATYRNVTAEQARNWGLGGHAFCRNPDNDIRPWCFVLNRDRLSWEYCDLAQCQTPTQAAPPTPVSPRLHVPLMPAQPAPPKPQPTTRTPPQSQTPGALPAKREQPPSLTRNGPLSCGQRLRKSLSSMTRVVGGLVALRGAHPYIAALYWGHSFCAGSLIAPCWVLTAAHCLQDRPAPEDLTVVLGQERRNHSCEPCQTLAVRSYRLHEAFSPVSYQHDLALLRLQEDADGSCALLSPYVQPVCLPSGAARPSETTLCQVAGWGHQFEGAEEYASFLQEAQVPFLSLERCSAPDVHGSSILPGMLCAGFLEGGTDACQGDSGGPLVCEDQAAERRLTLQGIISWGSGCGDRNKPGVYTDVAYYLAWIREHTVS
# Mu-type opioid receptor [12] = target: T6, Mu-type opioid receptor (Homo sapiens, UniProt P35372); assay: SAR Analysis of Antagonists of the MOR Receptor using an Image-Based Assay - Set 3. [Related pubchem assays (depositor defined):AID1777, AID1785, AID1786, AID1966, AID2133, AID2136, AID2284, AID2285, AID2420]; format: functional
# T6 sequence (P35372 whole entry): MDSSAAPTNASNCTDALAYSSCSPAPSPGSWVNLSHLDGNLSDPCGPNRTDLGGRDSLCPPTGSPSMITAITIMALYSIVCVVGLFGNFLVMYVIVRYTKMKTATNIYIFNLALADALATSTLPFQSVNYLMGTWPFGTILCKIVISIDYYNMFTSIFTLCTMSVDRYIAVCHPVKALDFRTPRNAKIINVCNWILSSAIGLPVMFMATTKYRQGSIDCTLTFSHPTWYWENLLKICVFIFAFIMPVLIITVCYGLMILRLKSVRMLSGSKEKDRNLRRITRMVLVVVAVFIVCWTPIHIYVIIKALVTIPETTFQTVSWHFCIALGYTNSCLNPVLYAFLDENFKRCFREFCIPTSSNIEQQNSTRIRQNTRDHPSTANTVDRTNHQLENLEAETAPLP
# [13] = target: T7, Delta-type opioid receptor (Homo sapiens, UniProt P41143); assay: SAR Analysis of Antagonists of the DOR Receptor using an Image-Based Assay - Set 3. [Related pubchem assays (depositor defined):AID1777, AID1785]; format: functional
# T7 sequence (P41143 whole entry): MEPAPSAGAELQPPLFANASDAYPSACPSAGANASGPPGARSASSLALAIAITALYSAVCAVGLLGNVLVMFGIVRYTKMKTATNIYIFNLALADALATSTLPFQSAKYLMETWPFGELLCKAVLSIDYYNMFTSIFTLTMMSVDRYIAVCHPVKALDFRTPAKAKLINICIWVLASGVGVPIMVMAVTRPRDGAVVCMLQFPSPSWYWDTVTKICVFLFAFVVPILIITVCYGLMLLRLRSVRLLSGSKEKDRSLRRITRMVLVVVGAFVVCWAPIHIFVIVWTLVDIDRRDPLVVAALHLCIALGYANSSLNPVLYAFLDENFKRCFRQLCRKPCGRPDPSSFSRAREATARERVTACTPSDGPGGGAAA
# [14] = target: T8, Kappa-type opioid receptor (Homo sapiens, UniProt P41145); assay: SAR analysis of small molecule antagonists of the kappa opioid receptor via a luminescent beta-arrestin assay - Set 3. [Related pubchem assays (depositor defined):AID1777, AID1778, AID1785, AID1786, AID1966, AID2133, AID2136, AID2285, AID2495]; format: functional
# T8 sequence (P41145 whole entry): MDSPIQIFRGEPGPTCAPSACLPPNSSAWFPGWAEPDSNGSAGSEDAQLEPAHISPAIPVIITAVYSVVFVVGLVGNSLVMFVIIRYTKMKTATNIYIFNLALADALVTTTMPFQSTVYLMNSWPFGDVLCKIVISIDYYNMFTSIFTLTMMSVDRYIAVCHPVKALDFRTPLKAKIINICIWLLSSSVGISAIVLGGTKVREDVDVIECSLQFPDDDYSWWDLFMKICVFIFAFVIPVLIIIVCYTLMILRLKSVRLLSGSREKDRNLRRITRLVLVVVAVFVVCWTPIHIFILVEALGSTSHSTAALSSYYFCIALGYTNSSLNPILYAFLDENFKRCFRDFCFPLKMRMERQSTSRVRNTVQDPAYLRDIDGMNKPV
# [15] = target: T8, Kappa-type opioid receptor; assay: SAR analysis of Antagonists of the Kappa Opioid Receptor (KOR) using an Image-Based Assay - Set 4. [Related pubchem assays (depositor defined):AID1777, AID1785]; format: functional
# [16] = target: T8, Kappa-type opioid receptor; assay: kappa opioid receptor activation by imaging – image-based, set 3, SAR follow-up (AID 488833); format: functional
# Mu-type opioid receptor [17] = target: T6, Mu-type opioid receptor; assay: SAR Analysis of Agonists of the MOR Receptor using an Image-Based Assay - Set 3. [Related pubchem assays (depositor defined):AID1777, AID1785, AID1786, AID1966, AID2133, AID2136, AID2284, AID2285, AID2352]; format: functional
# [18] = target: T7, Delta-type opioid receptor; assay: SAR Analysis of Agonists of the DOR Receptor using an Image-Based Assay - Set 3. [Related pubchem assays (depositor defined):AID1777, AID1786]; format: functional
# [19] = target: T8, Kappa-type opioid receptor; assay: SAR analysis of small molecule agonists of the kappa opioid receptor via a luminescent beta-arrestin assay - Set 3. [Related pubchem assays (depositor defined):AID1777, AID1785, AID1786, AID1966, AID2133, AID2136, AID2284, AID2500]; format: functional
structure (smiles),measurement,setting,value
CCOC(=O)COc1ccccc1/C=C\[N+](=O)[O-],EC50,BJ [1],3.48 µM (inconclusive)
same,EC50,[2],4.03 µM (active)
same,EC50,BJ [3],26.7 µM (active)
same,IC50,[4],0.962 µM (active)
same,EC50,BJ [5],3.99 µM (inconclusive)
same,EC50,[6],4.76 µM (active)
same,IC50,[7],3.42 µM (active)
same,EC50,Integrin alpha-4,0.335 µM (active)
same,IC50,CHO,1.92 µM (active)
same,IC50,Beta Lactamase,> 49.7 µM (inactive)
COc1cc2c(cc1OC)C(c1cc(Br)ccc1F)N(C(=O)CCl)CC2 (centres undefined),EC50,BJ [1],2.7 µM (inconclusive)
same,EC50,[2],3.09 µM (active)
same,EC50,BJ [3],6.1 µM (active)
same,CC50,[8],5.64 µM (active)
same,EC50,BJ [5],5.02 µM (inconclusive)
same,EC50,[6],5.12 µM (active)
same,CC50,[9],4.2 µM (active)
same,AC50,[10],4.29 µM (active)
same,EC50,BJ [11],1.41 µM (active)
same,EC50,Protein RecA,0.8 µM (active)
O=C(c1cccc(F)c1)n1nnc2ccccc21,IC50,Coagulation factor XII,10.5 µM (active)
O=C(Cn1c(=O)c2cccn2c2cc(Br)cnc21)NCCCN1CCN(c2ccc(Cl)cc2)CC1,IC50,Mu-type opioid receptor [12],5.32 µM (active)
same,IC50,[13],> 32 µM (inactive)
same,IC50,[14],> 20 µM (inactive)
same,IC50,[15],> 32 µM (inactive)
COc1cccc(CSc2nnc(-c3ccccn3)n2Cc2cccs2)c1,EC50,[16],12.2 µM (inactive)
same,EC50,Mu-type opioid receptor [17],> 32 µM (inactive)
same,EC50,[18],> 32 µM (inactive)
same,EC50,[19],8.72 µM (active)
